Results: the supplement of paper PMC8671470

Experiments:
Experiment in all cases: cell viability (% survival relative to DMSO control); higher = less cytotoxic
Details in all cases: 72 h
[1] = test system: myeloid leukemia patient primary cells Pat.10
Outline: (§1)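 Mononuclear cells from patients with AML or CML were thawed, purified on Ficoll and placed in RPMI 1640 with 10% FBS at 10,000 cells/well on 384-well plates. The plates came pre-printed with 70 compounds at five tenfold concentrations spanning 1–10,000 nM, in duplicate, and cells were exposed for 72 h. CellTiter-Glo gave viability, scaled between DMSO wells and wells with 10 μM proteasome inhibitor. Where reported, area under the curve was obtained from log-logistic fits with four parameters using the drc and PharmacoGx R packages.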

[2] = test system: myeloid leukemia patient primary cells Pat.11
Outline: as §1

[3] = test system: myeloid leukemia patient primary cells Pat.12
Outline: as §1

[4] = test system: myeloid leukemia patient primary cells Pat.13
Outline: as §1

[5] = test system: myeloid leukemia patient primary cells Pat.14
Outline: as §1

[6] = test system: myeloid leukemia patient primary cells Pat.3
Outline: as §1

[7] = test system: myeloid leukemia patient primary cells Pat.4
Outline: as §1

[8] = test system: myeloid leukemia patient primary cells Pat.5
Outline: as §1

[9] = test system: myeloid leukemia patient primary cells Pat.6
Outline: as §1

[10] = test system: myeloid leukemia patient primary cells Pat.8
Outline: as §1

[11] = test system: myeloid leukemia patient primary cells Pat.9
Outline: as §1

[12] = test system: MV4-11
Procedure: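 8x8 drug-combination matrices (0–5000 nM; rosiglitazone and lestaurtinib 0–1000 nM) were run in MV4-11 cells for 72 h with CellTiter-Glo read-out. Survival is normalised to DMSO and 10 µM bortezomib and clipped at 100%.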

Cc1c2c(=O)n(-c3ccccc3Cl)[nH]c2cc(=O)n1Cc1ccccn1
cell viability [%]
Details	1 nM	10 nM	100 nM	1000 nM	10000 nM
[1]	27.2	64.5	42.2	86.1	42.3
[2]	88	95.7	88.1	99.3	99.1
[3]	89.5	97.6	99.3	88.3	92.2
[4]	66.5	80	92.6	88.9	92.5
[5]	28.5	69.8	64.5	99.6	> 100
[6]	25.8	94.3	92.2	> 100	> 100
[7]	63.6	90.8	81.5	98.5	72.8
[8]	3.33	9.25	36.7	81.3	85.9
[9]	84.6	91.1	91.7	> 100	> 100
[10]	79.7	92.3	86.6	96.9	75.9
[11]	1.24	62.4	54.9	100	100

O=c1cc(N2CCOCC2)oc2c(-c3ccccc3)cccc12
cell viability [%]
Details	1 nM	10 nM	100 nM	1000 nM	10000 nM
[1]	31.3	46.9	78.1	50.8	22.6
[2]	88.7	94.2	96.7	91.1	65.2
[3]	91.4	98.3	92.6	97.4	92.4
[4]	88.7	95.7	83.6	91.4	45.6
[5]	86.4	56.8	91.1	77.9	58.3
[6]	96.2	37.6	92.2	80	61.6
[7]	78.8	98.5	86.1	63.1	14.4
[8]	47.8	0.265	70.4	58.3	< 0
[9]	91.8	82.3	93.2	97	68.3
[10]	88.3	86	92.4	67.1	61.5
[11]	63.7	15.2	77.7	54.8	12.5

O=C1C(SCCO)=C(SCCO)C(=O)c2ccccc21
cell viability [%]
Details	1 nM	10 nM	100 nM	1000 nM	10000 nM
[1]	29.3	> 100	60.9	35	> 100
[2]	96.1	91.4	99.8	7.63	0.114
[3]	94.2	99.6	92	2.07	< 0
[4]	61.2	90.8	96.4	76.4	< 0
[5]	41.2	91.4	61.7	5.04	4.94
[6]	21.4	97.2	95.5	9.9	< 0
[7]	76.4	89.5	> 100	3.28	2.39
[8]	2.39	98.5	57.2	2.01	2.39
[9]	77.1	> 100	99.3	71.1	< 0
[10]	74.2	70	95.1	65.4	0.0301
[11]	1.27	95.1	28.7	< 0	< 0

Cn1cc(-c2ccncc2)c(-c2ccc(OCc3ccc4ccccc4n3)cc2)n1
cell viability [%]
Details	1 nM	10 nM	100 nM	1000 nM	10000 nM
[1]	95	65	78.5	44.2	54.7
[2]	99.1	98.1	> 100	87.9	99.3
[3]	98.4	97	> 100	82.3	87.9
[4]	88.2	87	87.9	70.8	53.5
[5]	82.6	86.8	86.7	50.1	43.4
[6]	91.6	90.2	> 100	48.8	29.9
[7]	93.5	82.6	90.3	85.4	97
[8]	26.3	1.33	18	0.265	< 0
[9]	94.1	88.2	95.8	73.5	68.8
[10]	81	89.1	93.4	74.4	83.6
[11]	62.4	36.5	32.9	3.45	11.7

O=C(O)CC[N+](=O)[O-] [3-nitropropionic acid]
cell viability [%]
Details	1 nM	10 nM	100 nM	1000 nM	10000 nM
[1]	90.9	83.7	74.7	76.2	36.6
[2]	97.4	90.2	97.5	99.5	97.4
[3]	97.9	84	> 100	91.5	48.2
[4]	87.3	92.4	95.5	88.3	70.8
[5]	98.6	91.2	> 100	84.7	30.7
[6]	91.5	93.8	99.8	92.1	3.01
[7]	83.6	84.5	99.3	95.6	5.84
[8]	85.9	50.1	81.8	67.1	0.265
[9]	> 100	93	> 100	96.8	90
[10]	81.1	96.9	95.6	96.3	82.7
[11]	80.9	66.3	81.6	71.5	2.42

O=C(O)CC[N+](=O)[O-] [3-nitropropionic acid] + CCn1c(=Cc2cccc[n+]2CC)sc(=C2Sc3ccccc3N2C)c1=O [MKT 077]
cell viability [%], [12]
Details	drug1 concentration 5 nM	drug1 concentration 10 nM	drug1 concentration 50 nM	drug1 concentration 100 nM	drug1 concentration 500 nM	drug1 concentration 1000 nM	drug1 concentration 5000 nM
drug2 concentration 5 nM	89.1	97	> 100	86.8	> 100	> 100	75.6
drug2 concentration 10 nM	89.2	> 100	> 100	83.7	98.1	> 100	> 100
drug2 concentration 50 nM	> 100	> 100	> 100	84.1	> 100	81.3	> 100
drug2 concentration 100 nM	97.3	> 100	93.7	84.3	> 100	88.2	68.4
drug2 concentration 500 nM	> 100	96	92.7	> 100	94.3	91.4	86.1
drug2 concentration 1000 nM	89.6	97.4	92.8	> 100	97.6	> 100	65.1
drug2 concentration 5000 nM	72.5	80	96.6	> 100	87.2	97.2	79.8

Cc1[nH]nc(C(F)(F)F)c1Cc1sc2c(c1C(=O)N1C[C@](C)(O)CO1)c(=O)n(C)c(=O)n2C(C)C [AZD3965]
cell viability [%]
Details	1 nM	10 nM	100 nM	1000 nM	10000 nM
[1]	98.2	33.4	85	46.5	48.7
[2]	93.7	91.6	> 100	> 100	88.6
[3]	93.3	94	> 100	99.9	98.2
[4]	85.6	69.2	93.7	97.4	81.1
[5]	84.2	39.1	> 100	89.9	98.9
[6]	86.2	76.4	> 100	92.3	94.2
[7]	87.3	98.5	98.1	> 100	> 100
[8]	82.2	5.69	65	55.7	44.5
[9]	90.7	83.2	97.7	94.9	96.1
[10]	86.7	74.6	89.9	92.5	87.8
[11]	> 100	34.8	> 100	74.3	86.9

O=C(/C=C/c1ccc(O)c(O)c1)OCCc1ccccc1 [Caffeic acid phenethyl ester]
cell viability [%]
Details	1 nM	10 nM	100 nM	1000 nM	10000 nM
[1]	88.2	63.9	33	31	83.7
[2]	96.1	97.8	> 100	73.5	38
[3]	> 100	95.5	> 100	57.4	34.5
[4]	> 100	91	95.8	87.2	42
[5]	95.7	83.5	80.5	48.9	16.3
[6]	92	83.1	39.1	41.7	3.62
[7]	89.5	87.7	86.2	16.7	2.41
[8]	65.2	69.6	55.9	4.78	21.6
[9]	98	93.6	96.9	65.7	35.2
[10]	97.7	80.9	85.1	29	5.61
[11]	68.9	84.8	8.63	11.1	11.8
